Experimental data published in patent publication US6821993B1, “Triazepine derivatives as neurotrophic agents” (Ortho-McNeil Pharmaceutical, Inc., priority 2001, dated 2004).

Key:
[1] = test system: Primary Rat Hippocampal Cells; experiment: Neurite outgrowth assay in primary rat hippocampal cells; type: cell-based; settings: MAP-2 immunofluorescence, embryonic day 18 rat hippocampal cells, 7 days in culture
Protocol: Hippocampal cells were dissected from the brains of embryonic day 18 rat pups and dissociated with trypsin (1 mg/mL) and trituration. Cells were seeded at 30,000 cells/well in 96-well plates filled with 100 μL MEM and 10% FBS. At 7 days in culture, cells were fixed with 4% paraformaldehyde and immuno-fluorescence is performed.
(§1) Cultures were incubated with normal horse serum (1:50; Vector Labs) or about 20 min, rinsed and then incubated with primary antibody, microtubule associated-protein 2 (anti-mouse MAP-2; 1:1000; Chemicon) for about 2 h at about RT. Following primary antibody, cultures were rinsed and incubated with fluorescein anti-mouse IgG (rat absorbed; 1:50; Vector Labs) for about 1 h. After fluorescein incubation, the cultures were rinsed and read in PBS on a fluorescent plate reader (excitation: 485 nm; emission: 530 nm). A compound was regarded as active if the neurite outgrowth response is greater than the mean DMSO-treated control response on the same plate. The response to test compound was reported as percent of DMSO-treated control. The signal-to-noise separation is consistent: the fluorescence from DMSO control wells is at least twofold greater than blank wells.

[2] = test system: M17 human neuroblastoma cells; experiment: Neurite outgrowth assay in human M17 neuroblastoma cells; type: cell-based; settings: MAP-2 immunofluorescence
Protocol: M17 human neuroblastoma cells were cultured in 1:1 ratio of EMEM and Ham's F12 with 1×NEAA and 10% FBS. The culture media contained 1×PSN antibiotic and was exchanged every other day, and the cells were passed in log phase near confluence.
as §1

[3] = test system: Dorsal Root Ganglion (DRG); experiment: Dorsal Root Ganglion (DRG) culture neurite outgrowth; type: cell-based, rat; settings: neurite outgrowth from DRG of newborn or 1-day-old CD rats; test compound 50-250 nM; examined on days 1-5
Protocol: DRG were dissected from newborn or 1-day-old CD rats and placed into PBS on ice. After rinsing twice with sterile plating medium, DRG were transferred to empty wells of a 6-well plate coated with polyornithine/laminin (Becton Dickinson Labware) using #7 curved forceps. Three ml/well of plating medium were then added very gently, so as not to disturb the DRG plating medium is Leibovitz's L-15 medium (Gibco), plus 0.6% glucose, 33 mM KCl, 10% FCS, 10 mM Hepes and penicillin/streptomycin/glutamine. After overnight incubation at about 37° C. in 5% CO2, this medium was replaced with 3 mL/well of assay medium [Leibovitz's L-15 medium plus 0.6% glucose, 1% FCS, 1% N-2 supplement (Gibco), 10 μM ara-C, 10 mM Hepes, and penicillin/streptomycin/glutamine] containing either vehicle (DMSO, 1/200,000), positive control (2-4 ng/mL NGF) or test compound (50-250 nM). All media were prepared fresh daily. DRG were microscopically examined for neurite outgrowth on days 1-5.

SMILES: O=C1[C@@H]2CSCN2C(=O)C(c2cccs2)=NN1CCC(c1ccccc1)c1ccccc1 [(6), 1H,7H-thiazolo[4,3-d][1,2,5]triazepine-1,5(2H)-dione, 2-(3,3-diphenylpropyl)-9,9a-dihydro-4-(2-thienyl)-, (9aR)-]
- Rat Hippocampal Cell Response [1]: 105% of DMSO-treated control
- M17 Cell Response [2]: <100% of DMSO-treated control

SMILES: CCC(C)(C)C1=NNC(=O)C2CCCCN2C1=O (stereo not shown) [(4)]
- Rat Hippocampal Cell Response [1]: 140% of DMSO-treated control
- M17 Cell Response [2]: <100% of DMSO-treated control

SMILES: CCC(C)(C)C1=NNC(=O)[C@@H]2CCCN2C1=O [(1), 1H-pyrrolo[2,1-d][1,2,5]triazepine-1,5(2H)-dione, 4-(1,1-dimethylpropyl)-7,8,9,9a-tetrahydro-, (9aS)-]
- DRG [3]: + (An experiment was considered positive (+) if the instant compound induced neurites of ≧1 diameter of the DRG)
- Rat Hippocampal Cell Response [1]: 123% of DMSO-treated control
- M17 Cell Response [2]: 115% of DMSO-treated control

SMILES: CCC(C)(C)C1=NN(CCCc2ccccc2)C(=O)[C@@H]2CCCN2C1=O [(2), 1H-pyrrolo[2,1-d][1,2,5]triazepine-1,5(2H)-dione, 4-(1,1-dimethylpropyl)-7,8,9,9a-tetrahydro-2-(3-phenylpropyl)-, (9aS)-]
- Rat Hippocampal Cell Response [1]: <100% of DMSO-treated control
- M17 Cell Response [2]: <100% of DMSO-treated control

SMILES: O=C1NN=C(c2cccs2)C(=O)N2CSC[C@@H]12 [(5), 1H,7H-thiazolo[4,3-d][1,2,5]triazepine-1,5(2H)-dione, 9,9a-dihydro-4-(2-thienyl)-, (9aR)-]
- Rat Hippocampal Cell Response [1]: 105% of DMSO-treated control
- M17 Cell Response [2]: <100% of DMSO-treated control

SMILES: CCC(C)(C)C1=NN(CCCc2cccnc2)C(=O)[C@@H]2CCCN2C1=O [(3), 1H-pyrrolo[2,1-d][1,2,5]triazepine-1.5(2H)-dione, 4-(1,1-dimethylpropyl)-7,8,9,9a-tetrahydro-2-[3-(3-pyridinyl)propyl]-, (9aS)-]
- Rat Hippocampal Cell Response [1]: 145% of DMSO-treated control
- M17 Cell Response [2]: <100% of DMSO-treated control
